Values of other authors in article PMC7909736 (Pharmaceutical Research, 2021).

Settings: share rate of 10 s^−1, room temperature

**Q.** Which Viscosity does the source give for `CC(=CCCCOCC(O)CO)CCCC(C)CCCC(C)C` (stereo not shown) [Formulation C17MGE, mono-O-(5,9, 13-trimethyl-4-tetradecenyl) glycerol ester] here?
**A.** 0.47 Pa·s
